Experimental data published in patent EP1301480B1, “1,3-DISUBSTITUTED AND 1,3,3-TRISUBSTITUTED PYRROLIDINES AS HISTAMINE-3 RECEPTOR LIGANDS AND THEIR THERAPEUTIC APPLICATIONS” (ABBOTT LABORATORIES, priority 2000, dated 2002).

Biological target: T1, histamine-3 receptor (Rattus norvegicus, UniProt Q9QYN8)
T1 construct: from tissue; host or cells: male Sprague-Dawley rat brain cortex membranes
Experiment: Histamine-3 receptor binding: displacement of (3H)-N-α-methylhistamine from rat cortical membranes
Set-up: species or system male Sprague-Dawley rat
Conditions: (3H)-N-α-methylhistamine (~0.6 nM), 30 minutes at 25 °C, pH 7.7, Cheng-Prusoff equation
Protocol: Briefly, male Sprague-Dawley rat brain cortices were homogenized (1 g tissue/10 mL buffer) in 50 mM Tris-HCl/5 mM EDTA containing protease inhibitor cocktail (Calbiochem) using a polytron set at 20,500 rpm. Homogenates were centrifuged for 20 minutes at 40,000xg. The supernatant was decanted, and pellets were weighed. The pellet was resuspended by polytron homogenization in 40 mL 50 mM Tris-HCI/5 mM EDTA with protease inhibitors and centrifuged for 20 minutes at 40,000xg. […] Test compounds were dissolved in DMSO to provide a 20 mM solution, serially diluted and then added to the incubation mixtures prior to initiating the incubation assay by addition of the membranes. Thioperamide (3 µM) was used to determine nonspecific binding. Binding incubations were conducted for 30 minutes at 25 °C and terminated by addition of 2 mL of ice cold 50 mM Tris-HCl (pH 7.7) and filtration through 0.3% polyethylenimine-soaked Unifilter plates (Packard). These filters were washed 4 additional times with 2 mL of ice-cold 50 mM Tris-HCl and dried for 1 hour. Radioactivity was determined using liquid scintillation counting techniques. Results were analyzed by Hill transformation and Ki values were determined using the Cheng-Prusoff equation.

T1 sequence (Q9QYN8 whole entry): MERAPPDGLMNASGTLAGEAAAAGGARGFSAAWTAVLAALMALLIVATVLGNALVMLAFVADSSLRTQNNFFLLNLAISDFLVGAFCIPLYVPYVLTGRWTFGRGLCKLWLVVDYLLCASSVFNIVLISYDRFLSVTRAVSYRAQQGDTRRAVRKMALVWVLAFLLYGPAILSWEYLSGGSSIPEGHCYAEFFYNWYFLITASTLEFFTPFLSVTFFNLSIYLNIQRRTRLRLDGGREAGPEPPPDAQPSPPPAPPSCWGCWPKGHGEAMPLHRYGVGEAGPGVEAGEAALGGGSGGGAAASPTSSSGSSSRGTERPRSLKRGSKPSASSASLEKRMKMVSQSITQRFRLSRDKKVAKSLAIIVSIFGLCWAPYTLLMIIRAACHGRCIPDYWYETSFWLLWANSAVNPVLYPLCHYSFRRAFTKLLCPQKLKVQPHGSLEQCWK

Molecule | Ki [nM]
N-{(3R)-1-[3-(4-acetylphenoxy)propyl]pyrrolidinyl}-4-(trifluoromethoxy)benzenesulfonamide [Example 73] | 6.4
O=C(c1ccc(OCCCN2CCC(O)C2)cc1)C1CC1 (centres unmarked) [Example 151, cyclopropyl{4-[3-(3-hydroxy-1-pyrrolidinyl)propoxy]phenyl}methanone] | 22
CC(=O)c1ccc(OCCCN2CCC(N3C(=O)NC(C(C)C)C3=O)C2)cc1 [Example 10, (5R)-3-{(3R)-1-[3-(4-acetylphenoxy)propyl]pyrrolidinyl}-5-isopropyl-2,4-imidazolidinedione] | 626
N-((3R)-1-{3-[4-(cyclopropylcarbonyl)phenoxy]propyl}pyrrolidinyl)-4-isopropylbenzenesulfonamide [Example 67] | 2.9
CC1(O)CCN(CCCOc2ccc(-c3ccc(C#N)cc3)cc2)C1 (centres unmarked) [Example 156, 4'-[3-(3-hydroxy-3-methyl-1-pyrrolidinyl)propoxy][1,1'-biphenyl]-4-carbonitrile] | 45
CC(C)C1(O)CCN(CCCOc2ccc(-c3ccc(C#N)cc3)cc2)C1 (centres unmarked) [Example 157] | 593
1-(4-{3-[(3R)-3-aminopyrrolidinyl]propoxy}phenyl)-1-propanone [Example 7] | 31
CC(C)(C)OC(=O)NC1CCN(CCCOc2ccc(-c3ccc(C#N)cc3)cc2)C1 (centres unmarked) [Example 98, tert-butyl 1-{3-[(4'-cyano[1,1'-biphenyl]-4-yl)oxy]propyl}-3-pyrrolidinylcarbamate] | 90
N#Cc1ccc(-c2ccc(OCCCN3CC[C@H](O)C3)cc2)cc1 [Example 155, 4'-{3-[(3S)-3-hydroxypyrrolidinyl]propoxy}[1,1'-biphenyl]-4-carbonitrile] | 105

The remaining lines, values ahead:

Ki [nM] | Molecule
42 | N#Cc1ccc(-c2ccc(OCCCN3CC[C@@H](O)C3)cc2)cc1 [Example 153, 4'-{3-[(3R)-3-hydroxypyrrolidinyl]propoxy}[1,1'-biphenyl]-4-carbonitrile]
15 | C[C@@]1(O)CCN(CCCOc2ccc(-c3ccc(C#N)cc3)cc2)C1 [Example 158, 4'-{3-[(3R)-3-hydroxy-3-methylpyrrolidinyl]propoxy}[1,1'-biphenyl]-4-carbonitrile]
63 | N#Cc1ccc(-c2ccc(OCCCN3CCC(=O)C3)cc2)cc1 [Example 154, 4'-[3-(3-oxo-1-pyrrolidinyl)propoxy][1,1'-biphenyl]-4-carbonitrile]
8.7 | O=C(c1ccc(OCCCN2CC[C@@H](O)C2)cc1)C1CC1 [Example 152, cyclopropyl(4-{3-[(3R)-3-hydroxypyrrolidinyl]propoxy}phenyl)methanone]
12 | CN(C)[C@@H]1CCN(CCCOc2ccc(-c3ccc(C#N)cc3)cc2)C1 [Example 108, 4'-{3-[(3R)-3-(dimethylamino)pyrrolidinyl]propoxy}[1,1'-biphenyl]-4-carbonitrile]
